In publication PMC6917776, “Discovery of a chemical probe for PRDM9” (Nature Communications, 2019):

Columns and labels:
RPMI-8226 = experiment: CelltiterGlo viability cell assay; format: cell-based
Description: (§1) Supplementary Figure 13. […] Viability of
(§2) (a) Multiple Myeloma lines and (b) Breast Cancer cell lines following 3 or 6 days treatment with […]
(§3) manufacturer’s instructions as described in the Supplementary methods. Data are normalized to DMSO control. N=3 biological replicates, +/- SEM. Source data are provided as a Source Data […]
(§4) CelltiterGlo viability cell assay
(§5) Cells were seeded in 96 well plates at per-well densities of 10000 (MDA-MB436, ATCC-HTB130), 15000 (8226, kind gift from Rodger Tiedemann, Princess Margaret Cancer Centre), […]
(§6) kind gift from Rodger Tiedemann, Princess Margaret Cancer Centre) and 50000 (CAL851, kind gift from Mathieu Lupien, Princess Margaret Cancer Centre) and were treated at increasing concentrations of compounds ranging from 0.01 μM to 30 μM and assessed for proliferation using CelltiterGlo (Promega) following manufacturer’s instructions, as readout on days 3 and 6 as indicated. All cell lines were mycoplasma negative, as determined by MycoAlert™ Mycoplasma Detection Kit(Lonza). […]

HCC1806 = experiment: CelltiterGlo viability cell assay; format: cell-based; conditions: HCC1806, 3 day
Description: as §1, §2, §3, §4, §5, §6

## COc1cc(OC)cc(-c2noc(N3CCN(C)C4(CCN(c5ccccc5)CC4)C3)n2)c1 [MRK-740N]
RPMI-8226; 8226, 3 day, 0.01 uM
  viability Average: 101.19
  viability Replicate 1: 100.76
  viability Replicate 2: 100.18
  viability Replicate 3: 102.63
RPMI-8226; 8226, 3 day, 0.03 uM
  viability Average: 99.22
  viability Replicate 1: 99.66
  viability Replicate 2: 95.69
  viability Replicate 3: 102.30
RPMI-8226; 8226, 3 day, 0.1 uM
  viability Average: 101.66
  viability Replicate 1: 102.47
  viability Replicate 2: 99.05
  viability Replicate 3: 103.47
RPMI-8226; 8226, 3 day, 0.3 uM
  viability Average: 100.14
  viability Replicate 1: 98.42
  viability Replicate 2: 99.23
  viability Replicate 3: 102.78
RPMI-8226; 8226, 3 day, 1 uM
  viability Average: 99.15
  viability Replicate 1: 95.47
  viability Replicate 2: 99.58
  viability Replicate 3: 102.40
RPMI-8226; 8226, 3 day, 3 uM
  viability Average: 100.92
  viability Replicate 1: 100.27
  viability Replicate 2: 100.06
  viability Replicate 3: 102.42
RPMI-8226; 8226, 3 day, 9.5 uM
  viability Average: 90.08
  viability Replicate 1: 80.69
  viability Replicate 2: 88.67
  viability Replicate 3: 100.87
RPMI-8226; 8226, 3 day, 30 uM
  viability Average: 40.55
  viability Replicate 1: 58.77
  viability Replicate 2: 22.31
  viability Replicate 3: 40.58
RPMI-8226; 8226, 6 day, 0.01 uM
  viability Average: 98.95
  viability Replicate 1: 98.27
  viability Replicate 2: 97.90
  viability Replicate 3: 100.68
RPMI-8226; 8226, 6 day, 0.03 uM
  viability Average: 98.07
  viability Replicate 1: 95.77
  viability Replicate 2: 97.65
  viability Replicate 3: 100.80
RPMI-8226; 8226, 6 day, 0.1 uM
  viability Average: 98.68
  viability Replicate 1: 95.86
  viability Replicate 2: 100.16
  viability Replicate 3: 100.02
RPMI-8226; 8226, 6 day, 0.3 uM
  viability Average: 96.98
  viability Replicate 1: 94.57
  viability Replicate 2: 97.72
  viability Replicate 3: 98.63
RPMI-8226; 8226, 6 day, 1 uM
  viability Average: 97.56
  viability Replicate 1: 97.46
  viability Replicate 2: 98.37
  viability Replicate 3: 96.84
RPMI-8226; 8226, 6 day, 3 uM
  viability Average: 100.28
  viability Replicate 1: 98.97
  viability Replicate 2: 101.92
  viability Replicate 3: 99.95
RPMI-8226; 8226, 6 day, 9.5 uM
  viability Average: 107.21
  viability Replicate 1: 106.83
  viability Replicate 2: 105.76
  viability Replicate 3: 109.04
RPMI-8226; 8226, 6 day, 30 uM
  viability Average: 80.58
  viability Replicate 1: 102.03
  viability Replicate 2: 55.75
  viability Replicate 3: 83.98
HCC1806; 0.01 uM
  viability Average: 114.56
  viability Replicate 1: 108.66
  viability Replicate 2: 106.14
  viability Replicate 3: 128.88
HCC1806; 0.03 uM
  viability Average: 112.72
  viability Replicate 1: 107.72
  viability Replicate 2: 100.89
  viability Replicate 3: 129.55
HCC1806; 0.1 uM
  viability Average: 114.82
  viability Replicate 1: 110.69
  viability Replicate 2: 103.88
  viability Replicate 3: 129.88
HCC1806; 0.3 uM
  viability Average: 114.56
  viability Replicate 1: 110.72
  viability Replicate 2: 101.60
  viability Replicate 3: 131.35
HCC1806; 1 uM
  viability Average: 117.58
  viability Replicate 1: 111.18
  viability Replicate 2: 107.64
  viability Replicate 3: 133.91
HCC1806; 3 uM
  viability Average: 114.75
  viability Replicate 1: 110.32
  viability Replicate 2: 101.81
  viability Replicate 3: 132.12
HCC1806; 9.5 uM
  viability Average: 100.22
  viability Replicate 1: 94.76
  viability Replicate 2: 91.96
  viability Replicate 3: 113.95
HCC1806; 30 uM
  viability Average: 31.36
  viability Replicate 1: 29.97
